What follows are compounds tested against EZH2 (Homo sapiens, UniProt Q15910) (assay: EZH2 assay: rPRC2 with biotinylated oligonucleosome substrates and 3H SAM, FlashPlate scintillation counting, IC50). Details: rPRC2, biotinylated oligonucleosome substrates, 3H SAM; read-out: EZH2 IC50.
Type: biochemical
Method: Assays were carried out by mixing rPRC2 together with biotinylated oligonucleosome substrates in the presence of the radio-labeled enzyme co-factor, S-adenosyl-L-methionine (^3H SAM) (Perkin Elmer) and monitoring the enzymatically mediated transfer of tritiated methyl groups from ^3H SAM to histone lysine residues. The amount of resulting tritated methylhistone product was measured by first capturing the biotinylated oligonuclesomes in streptavidin (SAV) coated FlashPlates (Perkin Elmer), followed by a wash step to remove un-reacted ^3H SAM, and then counting on a TopCount NXT 384 well plate scintillation counter (Perkin Elmer). The final assay conditions for EZH2 were as follows: 50 mM Tris Buffer pH 8.5, 1 mM DTT, 69 uM Brij-35 detergent, 5.0 mM MgCl2, 0.1 mg/mL BSA, 0.2 uM ^3H SAM, 0.2 uM biotinylated oligonucleosomes, 3.6 uM H3K27me3 peptide and 2 nM EZH2.
Compound IC50 measurements were obtained as follows: Compounds were first dissolved in 100% DMSO as 10 mM stock solutions. […] A 12.5 uL volume of the HMT enzyme, H3K27me3 peptide and oligonucleosome substrate in assay buffer was added to each well of the assay plate using a Multidrop Combi (ThermoFisher). Compounds were pre-incubated with the enzyme for 20 min, followed by initiation of the methyltransferase reaction by addition of 12.5 uL of 3H SAM in assay buffer (final volume=25 uL). The final concentrations of compounds ranged from a top default concentration of 80 uM down to 0.16 uM in ten 2-fold dilution steps. Reactions were carried out for 60 minutes and quenched with 20 uL per well of 1.96 mM SAH, 50 mM Tris PH 8.5, 200 mM EDTA. Stopped reactions were transferred to SAV coated Flashplates (Perkin Elmer), incubated for 120 min, washed with a plate washer, and then read on the TopCount NXT (1.0 min/well) to measure the amount of methylhistone product formed during the reaction. The amount of methylhistone product was compared with the amount of product formed in the 0% and 100% inhibition control wells allowing the calculation of % Inhibition in the presence of the individual compounds at various concentrations. IC50's were computed using a 4 parameter fit non-linear curve fitting software package (XLFIT, part of the database package, ActivityBase (IDBS)) where the four parameters were IC50, Hill slope, pre-transitional baseline (0% INH), and post-transitional baseline (100% INH); with the latter two parameters being fixed to zero and 100%, respectively, by default.

Sequence of EZH2 (Q15910 whole entry): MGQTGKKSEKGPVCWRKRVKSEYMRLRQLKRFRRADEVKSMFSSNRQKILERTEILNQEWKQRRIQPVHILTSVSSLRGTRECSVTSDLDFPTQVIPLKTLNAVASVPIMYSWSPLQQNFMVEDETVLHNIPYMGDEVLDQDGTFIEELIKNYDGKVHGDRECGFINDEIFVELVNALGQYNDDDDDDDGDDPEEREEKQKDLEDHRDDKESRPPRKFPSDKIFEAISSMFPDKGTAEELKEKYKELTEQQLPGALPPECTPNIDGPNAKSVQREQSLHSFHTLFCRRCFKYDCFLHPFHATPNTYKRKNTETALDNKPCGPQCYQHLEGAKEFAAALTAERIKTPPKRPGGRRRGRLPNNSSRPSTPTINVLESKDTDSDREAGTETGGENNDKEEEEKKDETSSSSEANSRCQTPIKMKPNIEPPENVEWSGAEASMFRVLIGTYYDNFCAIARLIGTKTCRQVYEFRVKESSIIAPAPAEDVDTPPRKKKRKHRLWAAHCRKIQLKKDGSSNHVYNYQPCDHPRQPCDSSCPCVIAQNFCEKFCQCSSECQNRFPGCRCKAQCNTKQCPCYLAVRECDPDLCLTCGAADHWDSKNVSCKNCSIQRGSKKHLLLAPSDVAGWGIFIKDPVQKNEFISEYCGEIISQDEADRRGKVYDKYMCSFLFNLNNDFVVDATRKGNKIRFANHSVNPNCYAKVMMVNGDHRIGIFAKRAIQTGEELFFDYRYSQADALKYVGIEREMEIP
Sequence of EZH2 (O75530 whole entry partner): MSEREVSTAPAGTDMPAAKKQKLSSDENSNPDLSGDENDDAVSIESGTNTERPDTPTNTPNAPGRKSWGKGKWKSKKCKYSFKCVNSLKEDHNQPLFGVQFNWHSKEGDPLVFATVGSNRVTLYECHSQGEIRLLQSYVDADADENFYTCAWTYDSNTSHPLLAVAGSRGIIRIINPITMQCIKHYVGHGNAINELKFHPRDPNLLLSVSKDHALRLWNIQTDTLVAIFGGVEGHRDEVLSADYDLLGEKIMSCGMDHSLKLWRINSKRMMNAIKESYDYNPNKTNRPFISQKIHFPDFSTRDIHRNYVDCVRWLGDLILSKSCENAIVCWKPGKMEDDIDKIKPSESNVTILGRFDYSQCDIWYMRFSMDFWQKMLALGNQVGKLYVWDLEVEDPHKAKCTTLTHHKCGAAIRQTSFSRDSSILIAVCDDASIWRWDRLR
Sequence of EZH2 (Q15022 whole entry partner): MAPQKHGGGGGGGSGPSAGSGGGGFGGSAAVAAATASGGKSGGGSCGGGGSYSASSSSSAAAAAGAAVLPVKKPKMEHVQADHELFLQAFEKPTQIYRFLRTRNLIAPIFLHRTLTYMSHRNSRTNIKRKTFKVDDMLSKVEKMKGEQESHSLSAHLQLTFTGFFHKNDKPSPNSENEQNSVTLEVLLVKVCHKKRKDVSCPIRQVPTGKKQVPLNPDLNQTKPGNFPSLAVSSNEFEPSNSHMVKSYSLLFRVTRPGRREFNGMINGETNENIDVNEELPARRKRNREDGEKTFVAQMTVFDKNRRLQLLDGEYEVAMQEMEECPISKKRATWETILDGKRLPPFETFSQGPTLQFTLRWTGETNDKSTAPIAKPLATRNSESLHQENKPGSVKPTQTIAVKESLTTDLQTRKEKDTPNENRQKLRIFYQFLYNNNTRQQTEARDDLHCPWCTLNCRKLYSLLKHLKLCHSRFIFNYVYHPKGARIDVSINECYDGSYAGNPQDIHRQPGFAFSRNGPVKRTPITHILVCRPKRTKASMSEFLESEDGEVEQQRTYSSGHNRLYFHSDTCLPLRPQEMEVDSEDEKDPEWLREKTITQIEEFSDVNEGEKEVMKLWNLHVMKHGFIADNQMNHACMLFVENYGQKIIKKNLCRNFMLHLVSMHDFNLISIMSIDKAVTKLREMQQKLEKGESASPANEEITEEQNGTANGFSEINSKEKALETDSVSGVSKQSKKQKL

| SMILES | IC50 |
| --- | --- |
| CC1(C)CC(NC(=O)c2ccc(Oc3ncccc3F)cc2)CC(C)(C)N1 [Compound I-110] | > 80 µM |
| CC1(C)CC(NC(=O)c2cccc(COc3ccccc3)c2)CC(C)(C)N1 [Compound I-111] | > 80 µM |
| CC1(C)CC(NC(=O)c2ccc(COc3ccncc3)cc2)CC(C)(C)N1 [Compound I-112] | > 80 µM |
| CN1CCC(NC(=O)c2ccc(Oc3ccccc3)cc2)CC1 [Compound I-113] | > 80 µM |
| CN1C2CCC1CC(NC(=O)c1ccc(Oc3ccccc3)cc1)C2 (stereo not shown) [Compound I-114] | > 80 µM |
| Cc1cc(C)cc(OCc2cccc(C(=O)NC3CC(C)(C)NC(C)(C)C3)c2)c1 [Compound I-115] | > 80 µM |
| O=C(NC1CCN(C(=O)c2ccccc2)CC1)c1ccc(Oc2ccccc2)cc1 [Compound I-116] | > 80 µM |
| COC(=O)c1ccc(COc2ccc(C(=O)NC3CC(C)(C)NC(C)(C)C3)cc2)cc1 [Compound I-117] | > 80 µM |
| CC(Oc1ccccc1)c1ccc(C(=O)NC2CC(C)(C)NC(C)(C)C2)cc1 (stereo not shown) [Compound I-118, 4-(1-phenoxyethyl)-N-(2,2,6,6-tetramethylpiperidin-4-yl)benzamide] | > 80 µM |
| Cc1cc(C)cc(Oc2ccc(C(=O)NC3CC(C)(C)NC(C)(C)C3)cc2)c1 [Compound I-119] | > 80 µM |
| COc1ccc(Oc2ccc(C(=O)NC3CC(C)(C)NC(C)(C)C3)cc2)c(C(=O)O)c1 [Compound I-120, 2-(4-(2,2,6,6-tetramethylpiperidin-4-ylcarbamoyl)phenoxy)-5-methoxy benzoic acid] | > 80 µM |
| CNc1cccc(OCc2ccc(C(=O)NC3CC(C)(C)NC(C)(C)C3)cc2)n1 [Compound I-121, 4-(((6-(methylamino)pyridin-2-yl)oxy)methyl)-N-(2,2,6,6-tetramethylpiperidin-4-yl)benzamide] | > 80 µM |
| CC1(C)CC(NC(=O)c2ccc(Oc3ccccc3)cc2O)CC(C)(C)N1 [Compound I-122] | > 80 µM |
| CC1(C)CC(NC(=O)c2ccc(Oc3ccccc3O)cc2)CC(C)(C)N1 [Compound I-123] | > 80 µM |
| Cc1cc(Oc2ccccc2)ccc1C(=O)NC1CC(C)(C)NC(C)(C)C1 [Compound I-124, 2-methyl-4-phenoxy-N-(2,2,6,6-tetramethylpiperidin-4-yl)-benzamide] | > 80 µM |
| CN(C(=O)c1ccc(Oc2ccccc2)cc1)C1CCNCC1 [Compound I-125, N-Methyl-4-phenoxy-N-(piperidin-4-yl)benzamide 2,2,2-trifluoroacetate] | > 80 µM |
| CN(C(=O)c1ccc(COc2cccc(Br)c2)cc1)C1CCNCC1 [Compound I-126] | > 80 µM |
| CC1(C)CC(NC(=O)c2ccc(Cc3ccccc3)cc2)CC(C)(C)N1 [Compound I-127, 4-Benzyl-N-(2,2,6,6-tetramethylpiperidin-4-yl)benzamide] | > 80 µM |
| CC1(C)CC(NC(=O)c2ccc(COc3ccnc4ccccc34)cc2)CC(C)(C)N1 [Compound I-128] | > 80 µM |
| CC1(C)CC(NC(=O)c2ccc(COc3cccc(-c4ccc(NCCN5CCOCC5)nc4)c3)cc2)CC(C)(C)N1 [Compound I-129] | > 80 µM |
| CC1(C)CC(NC(=O)c2cccc(COc3cccc(Br)c3)c2)CC(C)(C)N1 [Compound I-130] | > 80 µM |
| CCc1cccc(Oc2ccc(C(=O)NC3CC(C)(C)NC(C)(C)C3)cc2)c1 [Compound I-131] | > 80 µM |

| SMILES | IC50 |
| --- | --- |
| CN(C)CCNC(=O)c1ccc(Oc2ccccc2)cc1 [Compound I-132] | > 80 µM |
| CN(Cc1ccccc1)C(=O)c1ccc(Oc2ccccc2)cc1 [Compound I-133] | > 80 µM |
| O=C(NC1CCCCC1)c1ccc(Oc2ccccc2)cc1 [Compound I-134] | > 80 µM |
| CC(C)c1ccc(C(=O)NC2CC(C)(C)NC(C)(C)C2)cc1 [Compound I-135] | > 80 µM |
| CC(C)Oc1ccc(C(=O)NC2CC(C)(C)NC(C)(C)C2)cc1 [Compound I-136] | > 80 µM |
| CC1(C)CC(NC(=O)c2ccc3ccccc3c2)CC(C)(C)N1 [Compound I-137] | > 80 µM |
| CC1(C)CC(NC(=O)c2ccc(C(C)(C)C)cc2)CC(C)(C)N1 [Compound I-138] | > 80 µM |
| CC(C)CNC(=O)c1ccc(Oc2ccccc2)cc1 [Compound I-139] | > 80 µM |
| CN(C)CCCNC(=O)c1ccc(Oc2ccccc2)cc1 [Compound I-140] | > 80 µM |
| O=C(NCc1ccccc1)c1ccc(Oc2ccccc2)cc1 [Compound I-141] | > 80 µM |
| CC1(C)CC(NC(=O)Nc2ccc(C(C)(C)C)cc2Br)CC(C)(C)N1 [Compound I-143] | > 80 µM |
| CC1(C)CC(NC(=O)c2ccc(Oc3ccccc3)c(Br)c2)CC(C)(C)N1 [Compound I-144] | 5 to 20 µM |
| CC1(C)CC(NC(=O)c2ccc(SC3CCCCC3)cc2)CC(C)(C)N1 [Compound I-145] | 20 to 80 µM |
| CC1(C)CC(NC(=O)c2ccc(OC3CCCCC3)cc2)CC(C)(C)N1 [Compound I-147] | 20 to 80 µM |
| CC1(C)CC(NC(=O)c2ccc(Oc3ccccc3)c(F)c2)CC(C)(C)N1 [Compound I-148] | 5 to 20 µM |
| CC1(C)CC(NC(=O)c2ccc(Oc3ccccc3Cc3ccccc3)cc2)CC(C)(C)N1 [Compound I-149] | 5 to 20 µM |
| CC1(C)CC(NC(=O)c2ccc(Oc3ccccc3C3CCCCC3)cc2)CC(C)(C)N1 [Compound I-150] | 5 to 20 µM |
| CC1(C)CC(NC(=O)c2ccc(Oc3ccccc3C(C)(C)C)cc2)CC(C)(C)N1 [Compound I-151] | 5 to 20 µM |
| CC1(C)CC(NC(=O)c2ccc(Oc3ccccc3OCc3ccccc3)cc2)CC(C)(C)N1 [Compound I-152] | < 5 µM |
| CC1(C)CC(NC(=O)c2ccc(COc3cccc(-c4ccc(NC(=O)C5CC5)nc4)c3)cc2)CC(C)(C)N1 [Compound I-153] | 20 to 80 µM |
| CC1(C)CC(NC(=O)c2ccc(COc3cccc(-c4ccc(N)cc4)c3)cc2)CC(C)(C)N1 [Compound I-155] | 20 to 80 µM |
| Cc1ccc(Oc2ccc(C(=O)NC3CC(C)(C)NC(C)(C)C3)cc2)c(C#N)c1 [Compound I-156] | > 80 µM |

| SMILES | IC50 |
| --- | --- |
| CC1(C)CC(NC(=O)c2ccc(Oc3ccc(F)cc3C#N)cc2)CC(C)(C)N1 [Compound I-157] | 20 to 80 µM |
| Cc1ccc(C#N)c(Oc2ccc(C(=O)NC3CC(C)(C)NC(C)(C)C3)cc2)c1 [Compound I-158] | 20 to 80 µM |
| CC1(C)CC(NC(=O)c2ccc(Oc3c(F)cccc3C#N)cc2)CC(C)(C)N1 [Compound I-159] | 20 to 80 µM |
| CC1(C)CC(NC(=O)c2ccc(C(=O)Nc3ccccc3)cc2)CC(C)(C)N1 [Compound I-160] | > 80 µM |
| CC1(C)CC(NC(=O)c2ccc(C(=O)Nc3cccc(Br)c3)cc2)CC(C)(C)N1 [Compound I-161] | > 80 µM |
| CC1(C)CC(NC(=O)c2ccc(NC(=O)c3cccc(Br)c3)cc2)CC(C)(C)N1 [Compound I-162] | 20 to 80 µM |
| CC1(C)CC(NC(=O)c2ccc(COc3cccc(N4CCOCC4)c3)cc2)CC(C)(C)N1 [Compound I-164] | > 80 µM |
| CC1(C)CC(NC(=O)c2ccc(COc3cccc(N4CCNCC4)c3)cc2)CC(C)(C)N1 [Compound I-165] | > 80 µM |
| CC1(C)CC(NC(=O)c2ccc(COc3cccc(N4CCCNCC4)c3)cc2)CC(C)(C)N1 [Compound I-166] | > 80 µM |
| CC1(C)CC(NC(=O)c2ccc(Oc3cccc(OCc4ccccc4)c3)cc2)CC(C)(C)N1 [Compound I-168] | 20 to 80 µM |
| CC1(C)CC(NC(=O)c2ccc(Oc3cccc(CN4CCCCC4)c3)cc2)CC(C)(C)N1 [Compound I-169] | 5 to 20 µM |
| CCC(C)c1ccccc1Oc1ccc(C(=O)NC2CC(C)(C)NC(C)(C)C2)cc1 (stereo not shown) [Compound I-170] | 5 to 20 µM |
| CC1(C)CC(NC(=O)c2ccc(Oc3ccc4ncccc4c3)cc2)CC(C)(C)N1 [Compound I-172] | > 80 µM |
| CC1(C)CC(NC(=O)c2ccc(Oc3ccccc3C#N)cc2Cl)CC(C)(C)N1 [Compound I-174] | 20 to 80 µM |
| CC1(C)CC(NC(=O)c2ccc(Oc3ccccc3)cc2Cl)CC(C)(C)N1 [Compound I-175] | > 80 µM |
| Cc1cccc(C#N)c1Oc1ccc(C(=O)NC2CC(C)(C)NC(C)(C)C2)cc1 [Compound I-176] | 20 to 80 µM |
| COc1ccc(Oc2ccc(C(=O)NC3CC(C)(C)NC(C)(C)C3)cc2)c(C#N)c1 [Compound I-177] | > 80 µM |
| N#Cc1ccccc1Oc1ccc(C(=O)NC2CCNCC2)cc1Cl [Compound I-178] | > 80 µM |
| CC1(C)CC(NC(=O)c2ccc(Oc3ccccc3CO)cc2)CC(C)(C)N1 [Compound I-179] | 20 to 80 µM |
| CC1(C)CC(NC(=O)c2ccc(Oc3cccc(Br)c3)cc2)CC(C)(C)N1 [Compound I-180] | 20 to 80 µM |

— patent publication US20130310379A1, “MODULATORS OF METHYL MODIFYING ENZYMES, COMPOSITIONS AND USES THEREOF” (CONSTELLATION PHARMACEUTICALS, priority 2010, published 2013)
